Measured values: patent US20260041653A1, “AN HDAC INHIBITOR FOR TREATING CANCER WITH A MODIFIED STK11 ACTIVITY OR EXPRESSION” (Tango Therapeutics, Inc., priority 2022, published 2026)

Assays:
[1] = test system: CT26_STK11KO tumor (KRAS G12D); assay: Anti-tumor efficacy in CT26_STK11KO colon carcinoma model; assay type: in vivo, mouse; settings: for ORR % / TGI %: CT26 STK11KO
Description: In this example, the anti-tumor activity of a combination treatment of anti-PD1 antibody with Compound I was determined in vivo in STK11-deleted syngeneic mouse models.
Briefly, mice were inoculated with STK11-deleted CT26 (murine colorectal carcinoma cell line) tumor model in a manner similar to that described in Example 1. The tumor model was resistant to murine anti-PD1 antibody by knockout of the STK11. Mice were treated with Compound I orally once daily and with anti-PD1, anti-IgG2a control, or anti-PD1 control twice per week as indicated. Tumor volume and survival was monitored over the course of treatment and plotted by individual animal for tumor volume (FIG. 7A) and by group for survival (FIG. 7B).
(§1) An in vivo anti-tumor efficacy of combination treatment of Anti-PD1 and Compound I in a CT26 mouse model was evaluated. CT26 is a colon carcinoma cell line with an endogenous KRAS G12D mutation. The experiment was performed in the parental/wild type line and in a line engineered with an STK11 knock-out (CT26_STK11KO) resulting in an anti-PD1 resistant model with lower CD8+ T cell infiltration.
(§2) In each of the experiments, the animals (8/group) were divided into four groups. Group I was treated with a control antibody Anti-IgG2, group 2 was treated with Compound I 75 mg/kg, group 3 was treated with anti-PD1 antibody, and group 4 was treated with Compound I 75 mg/kg and anti-PD1 antibody. Tumor volume and survival was monitored over the course of treatment. For the CT26_STK11KO model, the tumor volume was plotted by individual animal (FIG. 15A) and by treatment group (FIG. 15B). Survival was plotted by treatment group (FIG. 15C).
as §1, with “anti-CTLA4” for “Anti-PD1”, “anti-CTLA4-resistant model.” for “anti-PD1 resistant model with lower CD8+ T cell infiltration.”
(§3) An in vivo anti-tumor efficacy of double combination treatment of Anti-CTLA4 and Compound I in a CT26 syngeneic model was performed. CT26 is a colon carcinoma cell line. The experiment was also performed with an STK11-null CT26 model, this model is CTLA4 resistant.
(§4) There were 8 mice per group. Group I was treated with a control antibody Anti-IgG2, group 2 was treated with Compound I 75 mg/kg, group 3 was treated with anti-CTLA4 antibody, and group 4 was treated with Compound I 75 mg/kg and anti-CTLA4 antibody. Tumor volume was monitored over the course of treatment. The tumor volume was plotted by treatment group (FIG. 16A), and the individual animals were plotted for group 1 and group 4 (FIG. 16B), for the parental model. The tumor volume was plotted by treatment group (FIG. 16C), and the individual animals were plotted for group 1 and group 4 (FIG. 16D), for the STK11 knockout model.

[2] = Pharmacokinetics in beagle dogs; assay type: in vivo
Description: The PK of Compound I in beagle dogs was determined in plasma following single IV bolus and PO administration to non-naïve male and female beagle dogs. The vehicle used for IV was 20% wt/vol 2-hydroxypropyl β cyclodextrin (HPβCD), 1% vol/vol DMSO in saline, and PO was in 5% DMA, 30% PEG400 and 65% (30% HPβCD in water) (solution) or 0.5% MC (suspension). Plasma samples were collected from 3 animals/group at 0.083, 0.25, 0.5, 1, 3, 6, 9, 12, 24 and 48 hours after dosing.

CYP2C8 = CYP2C8 (Homo sapiens, UniProt P10632); assay: Metabolism by recombinant human CYP2C8; assay type: in vitro ADME; settings: read-out: terminal half life (T1/2), rh CYP2C8
CYP2C8, sequence (P10632 whole entry): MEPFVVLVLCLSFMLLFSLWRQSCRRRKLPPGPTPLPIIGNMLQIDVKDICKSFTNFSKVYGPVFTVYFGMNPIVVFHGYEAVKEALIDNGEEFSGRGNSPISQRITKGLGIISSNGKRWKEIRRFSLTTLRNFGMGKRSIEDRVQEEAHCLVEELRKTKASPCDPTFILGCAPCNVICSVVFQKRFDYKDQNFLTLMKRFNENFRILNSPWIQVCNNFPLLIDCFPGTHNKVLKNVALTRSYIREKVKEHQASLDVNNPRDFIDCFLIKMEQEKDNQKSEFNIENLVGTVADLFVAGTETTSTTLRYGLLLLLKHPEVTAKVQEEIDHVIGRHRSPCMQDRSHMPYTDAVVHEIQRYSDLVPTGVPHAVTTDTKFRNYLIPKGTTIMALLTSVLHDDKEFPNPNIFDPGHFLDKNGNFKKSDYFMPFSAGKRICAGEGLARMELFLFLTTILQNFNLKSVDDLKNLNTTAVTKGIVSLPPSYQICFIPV
Description: Drug metabolizing enzymes involved in the biotransformation of Compound I were investigated using human liver microsomes (HLM) and recombinant enzymes. Compound I was stable in HLMs (>93% remaining after 240 minutes of incubation with HLM protein concentration at 0.6 mg/ml). CYP selective inhibitor experiments were not performed due to lack of appreciable Compound I turnover.

[3] = Caverage in mice with STK11-deleted MC38 tumors; assay type: in vivo, mouse; settings: doses used in FIG. 12B and 12C
[4] = test system: CT26 parental tumor (KRAS G12D); assay: Anti-tumor efficacy in CT26 parental (wild-type) colon carcinoma model; assay type: in vivo, mouse
Description: as §1, §2
For the CT26 parental model, the tumor volume was plotted by treatment group (FIG. 15D) and by individual animal for groups 1 and 4 (FIG. 15E).
as §1, with “anti-CTLA4” for “Anti-PD1”, “anti-CTLA4-resistant model.” for “anti-PD1 resistant model with lower CD8+ T cell infiltration.”
as §3, §4

[5] = Compound I 75 mg/kg QD alone, second of two values (two experiments, Examples 14 and 15)
[6] = Compound I 75 mg/kg QD, antibodies 10 mg/kg, for Compound I alone the first of two printed values

C[S@@](=N)(=O)c1ccc(C(=O)Nc2cc(-c3ccc(F)cc3)ccc2N)cc1 [Compound I, (R)—N-(4-amino-4′-fluoro-[1,1′-biphenyl]-3-yl)-4-(S-methylsulfonimidoyl)benzamide]
ORR % [1, 5]: 38%
TGI % [1, 5]: 70%
ORR % [1, 6]: 0%
TGI % [1, 6]: 39%
resistance to immune checkpoint blockade driven by loss of STK11 ([1]; tumor models for colon adenocarcinoma and colorectal carcinoma (Examples 1 and 5)): reverses resistance to immune checkpoint blockade
PO bioavailability (% F) ([2]; beagle dogs, solution at 3 mg/kg, fasted, 3 mg/kg): 67%
half-life ([2]; both sexes, beagle, dog, plasma): 8.4 h
clearance ([2]; both sexes, beagle, dog, plasma, intravenous, read-out: CL, p): 9.6 mL/min/kg
bioavailability ([2]; both sexes, beagle, dog, plasma, po, 3 mg/kg, beagle dogs, solution at 3 mg/kg, fasted, read-out: PO bioavailability (% F)): 67.4%
half-life (CYP2C8): > 1 h
Cavg, u [3]: 192 nM
Fold of HDAC1 IC50 (Caverage coverage) [3]: 3.5 fold
ORR % [4, 5]: 63/63%
TGI % [4, 5]: 66%
ORR % [4, 6]: 63/63%
TGI % [4, 6]: 84%
